Laboratory results from patent publication US20230293644A1, “ANTI-INFLAMMATORY PEPTIDES AND COMPOSITION COMPRISING THE SAME” (Gemvax & KAEL Co., Ltd., priority 2012, published 2023).

What follows are substances tested on TNF-α (assay: Screening of TNF-α inhibitory effect, LPS-stimulated PBMC-derived monocytes (Example 2)). Details: 4 uM peptide, 2 hrs; LPS 10 ng/ml.
Format: cell-based, human
Protocol: PBMC (peripheral blood mononuclear cells) layer was separated from blood samples (50 ml) collected in healthy subjects using Biocoll Separating Solution (Biochrom AG, Berlin, Germany). The collected PBMC were enriched in RPMI 1640 medium containing 20% human serum for 30 mins, and then transferred to 100-mm polystyeren cell culture plate coated with human serum for incubation for 2 hrs at 37° C., 5% CO^2 incubator. Monocytes were detached from the bottom of the plate using cold PBS, and incubated to reach the number of 1 × 10^5 cell/well in 96-well plate with RPMI 1640 medium (supplemented with penicillinstreptomycin; […], human serum; 20%) over night.
ELISA was performed to find out how the peptides of the PEP RIA series influence TNF-α level. PBMC-derived monocytes were incubated to reach the number of 1 × 10^5 cells per well in a 96-well plate and then treated with LPS (lipopolysaccharide; 10 ng/ml, Sigma) for 2 hours. To the monocytes that were washed three times with PBS, OPTI-MEM culture medium was added to induce cell starvation for an hour, 4 µM of the peptide was taken out and incubated for 2 hours. There were three negative control groups. The first group was not treated with anything. The second group that was treated with estrogen (in this experiment, estradiol was used as a kind of estrogen). The third group was treated with LPS (10 ng/ml) or with LPS (10 ng/ml) as well as estrogen (20 nM). PEP1 that was confirmed to have TNF-α inhibiting activity was used as a positive control to measure TNF-α inhibiting activity. After incubation, TNF-α was measured by following the ELISA kit manual (R&D, Minneapolis, MN, USA). The details of quantification method can be found in Experiment 2.2 of Example 1.
Using the method stated above, Peptides with TNF-α inhibiting effect were screened. PBMC-derived monocytes were stimulated with LPS (10 ng/ml), which is endotoxin, for 2 hours and were induced to starve by adding OPTI-MEM for 1 hour. After that, 4 uM of 179 peptides were treated and incubated for 2 hrs. The amount of TNF-α in the cell culture medium was measured using ELISA, and the peptides with TNF-α inhibiting effect were screened by comparing to the negative and positive controls (FIG. 3 to FIG. 23).

Substance | TNF-α inhibiting effect compared to the control group treated with only LPS
LLTSRLR (listed as Homo sapiens) [SEQ ID NO: 149] | showed TNF-α inhibiting effect
SRLRF (listed as Homo sapiens) [SEQ ID NO: 167] | showed TNF-α inhibiting effect
LRFIPK (listed as Homo sapiens) [SEQ ID NO: 100] | showed TNF-α inhibiting effect
EAR [SEQ ID NO: 90] | showed TNF-α inhibiting effect
EARPALLTSRLRFIPKPD (listed as Homo sapiens) [SEQ ID NO: 66] | showed TNF-α inhibiting effect
LRF [SEQ ID NO: 176] | showed TNF-α inhibiting effect
AEVRQHREARPALLTSRLRFIPKPDGL (listed as Homo sapiens) [SEQ ID NO: 55] | showed TNF-α inhibiting effect
EARPALLTSRL (listed as Homo sapiens) [SEQ ID NO: 82] | showed TNF-α inhibiting effect
ARPALLTSRLRFI (listed as Homo sapiens) [SEQ ID NO: 110] | showed TNF-α inhibiting effect
EARP (listed as Homo sapiens) [SEQ ID NO: 89] | showed TNF-α inhibiting effect
RQHREARPALLTSRLRFIPKPDG (listed as Homo sapiens) [SEQ ID NO: 27] | showed TNF-α inhibiting effect
FIPK (listed as Homo sapiens) [SEQ ID NO: 102] | showed TNF-α inhibiting effect
ELSEAEVRQHREARPALLTSRLRFIPK (listed as Homo sapiens) [SEQ ID NO: 12] | showed TNF-α inhibiting effect
SEAEVRQHREARPALLTSRLRFIPK (listed as Homo sapiens) [SEQ ID NO: 10] | showed TNF-α inhibiting effect
TSRLRFIPK (listed as Homo sapiens) [SEQ ID NO: 97] | showed TNF-α inhibiting effect
EARPALLTSR (listed as Homo sapiens) [SEQ ID NO: 83] | showed TNF-α inhibiting effect
EVRQHREARPALLTSRLRFIPKPD (listed as Homo sapiens) [SEQ ID NO: 42] | showed TNF-α inhibiting effect
EARPALLTSRLR (listed as Homo sapiens) [SEQ ID NO: 81] | showed TNF-α inhibiting effect
LLTSRLRF (listed as Homo sapiens) [SEQ ID NO: 148] | showed TNF-α inhibiting effect
HREARPALLTSRLRFIPKPD (listed as Homo sapiens) [SEQ ID NO: 18] | showed TNF-α inhibiting effect

Substance | TNF-α inhibiting effect compared to the control group treated with only LPS
ARPALL (listed as Homo sapiens) [SEQ ID NO: 117] | showed TNF-α inhibiting effect
EVRQHREARPALLTSRLRFIPKPDGLR (listed as Homo sapiens) [SEQ ID NO: 45] | showed TNF-α inhibiting effect
RPALLTSRLRFIPK (listed as Homo sapiens) [SEQ ID NO: 92] | showed TNF-α inhibiting effect
QHREARPALLTSRLRFIPKP (listed as Homo sapiens) [SEQ ID NO: 20] | showed TNF-α inhibiting effect
SRLRFIP (listed as Homo sapiens) [SEQ ID NO: 165] | showed TNF-α inhibiting effect
SRLRFIPK (listed as Homo sapiens) [SEQ ID NO: 98] | showed TNF-α inhibiting effect
LLTSRL (listed as Homo sapiens) [SEQ ID NO: 108] | showed TNF-α inhibiting effect
VRQHREARPALLTSRLRFIPKPD (listed as Homo sapiens) [SEQ ID NO: 33] | showed TNF-α inhibiting effect
ARPALLT (listed as Homo sapiens) [SEQ ID NO: 116] | showed TNF-α inhibiting effect
ARPA (listed as Homo sapiens) [SEQ ID NO: 119] | showed TNF-α inhibiting effect
RLRF (listed as Homo sapiens) [SEQ ID NO: 172] | showed TNF-α inhibiting effect
RQHREARPALLTSRLRFIPKP (listed as Homo sapiens) [SEQ ID NO: 25] | showed TNF-α inhibiting effect
TSRLRFIP (listed as Homo sapiens) [SEQ ID NO: 159] | showed TNF-α inhibiting effect
EVRQHREARPALLTSRLRFIPKPDGLRP (listed as Homo sapiens) [SEQ ID NO: 46] | showed TNF-α inhibiting effect
LTSRL (listed as Homo sapiens) [SEQ ID NO: 157] | showed TNF-α inhibiting effect
ALLTSRLRF (listed as Homo sapiens) [SEQ ID NO: 140] | showed TNF-α inhibiting effect
RQHREARPALLTSRLRFIPKPD (listed as Homo sapiens) [SEQ ID NO: 26] | showed TNF-α inhibiting effect
RPALLTSR (listed as Homo sapiens) [SEQ ID NO: 124] | showed TNF-α inhibiting effect
QHREARPALLTSRLRFIPKPD (listed as Homo sapiens) [SEQ ID NO: 21] | showed TNF-α inhibiting effect
ARPALLTSRLRF (listed as Homo sapiens) [SEQ ID NO: 111] | showed TNF-α inhibiting effect

Same assay, conditions: 4 uM peptide, 2 hrs; LPS 10 ng/ml, estrogen 20 nM

Substance | TNF-α inhibiting effect compared to the group treated with LPS and estrogen
LLTSRLR (listed as Homo sapiens) [SEQ ID NO: 149] | showed TNF-α inhibiting effect
SRLRF (listed as Homo sapiens) [SEQ ID NO: 167] | showed TNF-α inhibiting effect
LRFIPK (listed as Homo sapiens) [SEQ ID NO: 100] | showed TNF-α inhibiting effect
EAR [SEQ ID NO: 90] | showed TNF-α inhibiting effect
AEVRQHREARPALLTSRLRFIPKPDGL (listed as Homo sapiens) [SEQ ID NO: 55] | showed TNF-α inhibiting effect
EARPALLTSRL (listed as Homo sapiens) [SEQ ID NO: 82] | showed TNF-α inhibiting effect
ARPALLTSRLRFI (listed as Homo sapiens) [SEQ ID NO: 110] | showed TNF-α inhibiting effect
EARP (listed as Homo sapiens) [SEQ ID NO: 89] | showed TNF-α inhibiting effect
RQHREARPALLTSRLRFIPKPDG (listed as Homo sapiens) [SEQ ID NO: 27] | showed TNF-α inhibiting effect
FIPK (listed as Homo sapiens) [SEQ ID NO: 102] | showed TNF-α inhibiting effect
SEAEVRQHREARPALLTSRLRFIPK (listed as Homo sapiens) [SEQ ID NO: 10] | showed TNF-α inhibiting effect
TSRLRFIPK (listed as Homo sapiens) [SEQ ID NO: 97] | showed TNF-α inhibiting effect
EARPALLTSR (listed as Homo sapiens) [SEQ ID NO: 83] | showed TNF-α inhibiting effect
EVRQHREARPALLTSRLRFIPKPD (listed as Homo sapiens) [SEQ ID NO: 42] | showed TNF-α inhibiting effect
EARPALLTSRLR (listed as Homo sapiens) [SEQ ID NO: 81] | showed TNF-α inhibiting effect
LLTSRLRF (listed as Homo sapiens) [SEQ ID NO: 148] | showed TNF-α inhibiting effect
HREARPALLTSRLRFIPKPD (listed as Homo sapiens) [SEQ ID NO: 18] | showed TNF-α inhibiting effect
ARPALL (listed as Homo sapiens) [SEQ ID NO: 117] | showed TNF-α inhibiting effect
QHREARPALLTSRLRFIPKP (listed as Homo sapiens) [SEQ ID NO: 20] | showed TNF-α inhibiting effect
SRLRFIP (listed as Homo sapiens) [SEQ ID NO: 165] | showed TNF-α inhibiting effect
SRLRFIPK (listed as Homo sapiens) [SEQ ID NO: 98] | showed TNF-α inhibiting effect
LLTSRL (listed as Homo sapiens) [SEQ ID NO: 108] | showed TNF-α inhibiting effect
VRQHREARPALLTSRLRFIPKPD (listed as Homo sapiens) [SEQ ID NO: 33] | showed TNF-α inhibiting effect
ARPALLT (listed as Homo sapiens) [SEQ ID NO: 116] | showed TNF-α inhibiting effect
RLRF (listed as Homo sapiens) [SEQ ID NO: 172] | showed TNF-α inhibiting effect
RQHREARPALLTSRLRFIPKP (listed as Homo sapiens) [SEQ ID NO: 25] | showed TNF-α inhibiting effect
LTSRL (listed as Homo sapiens) [SEQ ID NO: 157] | showed TNF-α inhibiting effect
ALLTSRLRF (listed as Homo sapiens) [SEQ ID NO: 140] | showed TNF-α inhibiting effect
RQHREARPALLTSRLRFIPKPD (listed as Homo sapiens) [SEQ ID NO: 26] | showed TNF-α inhibiting effect
